Measured values reported in US5652366A, “DI (1R)-(-)camphosulfonic acid) salt, preparation thereof and use thereof” (Rhone-Poulenc Rorer Pharmaceuticals Inc., priority 1995, dated 1997).

Tests used:
A1 and A2 receptors = conditions: reported developments; cited from earlier work
A2 receptor = conditions: relative to NECA; cited from earlier work
rat adipocytes = experiment: In vitro lipolysis assay in rat adipocytes (glycerol production); type: cell-based; conditions: Rattus norvegicus, Adipocyte, read-out: EC50 (50% inhibition of glycerol production); unit nM in cell
Method: Adipose tissue is removed from anesthetized rats and rinsed twice in incubation medium (2.09 g sodium bicarbonate and 0.04 g EDTA, disodium salt, in 1 L Krebs buffer). Each rat (300-350 g) yields approximately 4 ml of adipose tissue. The adipose tissue (35 ml) is cut into small pieces with scissors and washed with incubation medium (50 ml). The mixture is poured into the barrel of a 50 ml syringe to which is attached a short piece of clamped tubing instead of a needle. The aqueous phase is allowed to drain. A second wash with incubation medium is passed through the syringe. The tissue is added to 50 ml of collagenase solution (collagenase(90 mg), bovine serum albumin (BSA) (500 mg), and 0.1 M calcium chloride solution (1 ml), in incubation medium (50 ml)) in a 1 L bottle. The mixture is shaken in an environmental at 37° C. for about 60 minutes under an atmosphere of 95% oxygen/5% carbon dioxide to effect digestion of the tissue. The dispersed cells are poured through 2 layers of cheese cloth into a 100 ml plastic beaker. The undigested clumps in the cloth are rinsed once with incubation medium (20 ml). The cells in the beaker are centrifuged in 2 plastic tubes for 30 seconds at room temperature at 300 rpm. The aqueous phase is aspirated from beneath the loosely packed layer of floating fat cells and discarded. The adipocytes are gently poured into a 250 ml plastic beaker containing 100 ml of rinse solution (1 g BSA per 100 ml incubation medium). After gentle stirring the centrifugation step is repeated. Another wash with rinse solution follows. The cells are pooled and their volume is estimated with a graduated cylinder. The adipocytes are diluted in twice their volume of assay buffer (incubation medium (120 ml), BSA (1.2 g), pyruvic acid (13 mg)).
The assay is performed in 20 ml plastic scintillation vials and the total assay volume is 4.2 ml. Assay buffer (2.5 ml), diluted adipocytes (1.5 ml), and a solution of the compound to be tested (12.3 μL) adenosine agonist (12.3 μl; varying concentration) is incubated in the environmental shaker for 15 minutes, then the reaction is started with norepinephrine solution (41.2 μL) (10 nM, in a carrier solution containing water (100 ml), BSA (4 mg), and 0.1 M EDTA (20 I. LL))and adenosine deaminase (1 μg/ml, 41.2 μl). After sixty minutes in the shaker the reaction is terminated by putting the vials on ice. […] The hard lipid layer is removed by aspiration and the aqueous layer is assayed for glycerol (400 μl of sample). The positive control is done in the absence of any adenosine agonist, substituting water in place of the solution to be tested.

[1] = system: myocardial infarct in Sprague-Dawley rats; experiment: Cardioprotective activity in rat: myocardial infarct size after coronary occlusion/reperfusion; type: in vivo; conditions: control 63 ± 5, preconditioned 15 ± 8
Method: Adult Sprague-Dawley rats are anesthetized with Inactin (100 mg/kg i.p.). The trachea is intubated and positive pressure ventilation is provided via a small animal respirator. Catheters are placed in the femoral vein and artery for administration of compounds of the present invention to be tested, and measurement of blood pressure, respectively. An incision is made on the left side of the thorax over the pectoral muscles, and the muscles are retracted to expose the fourth intercostal space. The chest cavity is opened and the heart is exposed. A length of 4-0 proline suture is placed through the ventricular wall near the left main coronary artery and is used to interrupt blood flow through the cornary artery by tightening a slip-knot. A pulsed-Doppler flow probe (a device which measures blood flow) is placed on the surface of the heart to confirm that the coronary artery has been porperly identified. […]
For preconditioning the heart, the coronary artery is occluded (flow is interrupted) for a period of two minutes. […] Infarct size is determined by slicing the heart from apex to base into four to five slices 1-2 mm thick. […] The tissue slices are placed in a video image analysis system and infarct size is determined by planimetry. The effect of the compound of the present invention tested on myocardial infarct size is assessed and used to quantirate the extent of cardioprotective activity. […]

SMILES | A2/A1 ratio (A1 and A2 receptors) | fold less potent than NECA in affinity for the A2 receptor (A2 receptor) | EC50 (rat adipocytes) | % Risk Area Infarcted ([1]; Compound High: i.v. bolus 10 μg/kg, then 1 μg/kg/minute from 30 minutes prior to occlusion to 2 hours after reperfusion) | % Risk Area Infarcted ([1]; Compound Low: i.v. bolus 1 μg/kg, then 0.1 μg/kg/minute for 30 minutes prior to occlusion)
Nc1nc(Nc2ccccc2)nc2c1ncn2[C@@H]1O[C@H](CO)[C@@H](O)[C@H]1O [CV-1808] | 0.19 | 10 fold | – | – | –
CCNC(=O)[C@H]1C[C@@H](n2cnc3c(N[C@H](CC)Cc4sccc4Cl)ccnc32)[C@H](O)[C@@H]1O (single isomer, unassigned) [Example 39, [1S-[1α,2β,3β,4α(S*)]]-4-[7-[[2-(3-chloro-2-thienyl)-1-ethylethyl]amino]-3 H-imidazo[4,5-b]pyridin-3-yl]-N-ethyl-2,3-dihydroxycyclopentane-carboxamide] | – | – | 5.4 nM | 18 ± 5% | 23 ± 9%
